{"source": "patent US7985412B2", "about": "“Method of monitoring/controlling thysanoptera” (Keele University, priority 2004, dated 2011)", "key": {"[1]": {"system": "female Western Flower Thrips", "test": "Y-tube olfactometer bioassay", "format": "in vivo, Frankliniella occidentalis", "conditions": "for effect upon female Western Flower Thrips (in words): doses of 1 ng, and 100 ng; for attractant effect (in words): female Western Flower Thrips", "description": "Thrips were originally obtained from a commercial glasshouse and then maintained on pot chrysanthemums (Dendranthema x grandiflora (Ramat.) Kitamura) at 25° C. under a repeated cycle consisting of 18 hours of light and 6 hours of dark. The culture on chrysanthemums supplied mixed-age adult females, which were attracted to adult males in olfactometer bioassays, so these were used in the bioassays.\nThe Y-tube has two branches at an angle of 90° and a stem, which are all 60 mm long with internal diameters of 5 mm. The Y-tube was held horizontal and illuminated from above by four fluorescent tubes (950 lux). It was screened by a 10 cm high matt-black card wall, forming a 280 mm×280 mm square, to minimise any external visual influences. A 50 ml round glass flask with a Drechsel head was inserted in the tube before each branch and a semi-circle of filter paper (Whatman No. 1, diameter 42.5 mm), moistened with water, was placed in each to humidify the air. Connections between tubes are either made with brass swagelock connectors or by inserting narrower tubes into slightly wider tubes. All the glassware and the glass wool were rinsed thoroughly in warm water with Teepol ‘L’ neutral detergent (BDH Laboratory Supplies, Poole), then in distilled water, then in acetone, and left to dry overnight in an oven at 200° C. before each experiment. The connecting Teflon tubing and the swagelock connectors were rinsed thoroughly in warm water with Teepol ‘L’ neutral detergent, then in distilled water, then in hexane, and left to dry overnight in a fume cupboard before each run of an experiment.\nZero-grade clean air from a cylinder (supplied by British Oxygen Corporation, Manchester) was passed through an activated charcoal filter and then along Teflon tubes to two flow meters (Supelco, Sigma-Aldrich, Poole) that regulated the air flow to the two branches of a glass Y-tube. The rate in the two branches was 50 mm s^−1 (59 ml min^−1) and in the stem was 100 mm s^−1 (118 ml min^−1) and were checked with a bubble flow meter.\nAdults were placed one at a time in the stem of the Y-tube, by transferring them with a fine paintbrush, and allowed to walk up the Y-tube. A choice was recorded when they first crossed a line 20 mm down either branch from the junction of the “Y”. If a choice was not made within 3 min, it was recorded as “no choice” and excluded from the analysis. Each individual was tested twice to provide two successive choices. The sample flasks, connecting tubing and Y-tube were reversed after every 5 individuals. This reduced possible bias from external influences. Each experiment consisted of 1 to 3 runs on separate days to reduce possible bias from external influences. A total of 25 individuals were tested in each run of an experiment, which lasted about 2 h. Experiments were conducted at 25±1° C.\nAt the start of each run, 0.2 ml of distilled water was placed on the filter paper in each flask. […] The filter papers were removed and replaced with fresh water and test and control substances every time the equipment was reversed.\nIt was shown that there was no preference in thrips response by testing mixed-age females (in the absence of a test composition) in the Y-tube olfactometer on 3 separate days. The apparatus was set up as before, but with only water and hexane in each flask. Since the arms of the Y-tube were reversed by rotating the stem by 180° after every five individuals, the difference in the number of choices between left and right and between arm A and arm B could be tested separately. There was no preference to the left or right or for arm A or arm B thus establishing that the apparatus was unbiased.\nIn each case 25 adult females were tested in 2 or 3 separate runs. The compound was applied in 1 μl hexane.\nExample 1 was repeated using each of isobornyl 2-methyl butanoate, isobornyl pivalate and lavandulyl valerate in amounts of 0.1 ng. […]"}, "F. occidentalis": {"system": "F. occidentalis", "test": "Field trial: catch on blue sticky traps in sweet pepper greenhouses", "format": "in vivo, Frankliniella occidentalis", "description": "The biological activity of neryl (S)-2 methylbutanoate was tested in commercial crops of sweet pepper (var. Habana) grown in greenhouses at Zamora (37°42.945′N, 0°57.720′W) near Torre Pacheco in the Murcia region of Spain. The crops were about 110 cm high, planted in rows 1 m apart, and were naturally infested with a low level of F. occidentalis. Three 2-day long experiments were carried out, alternating between two nearby houses, each with an area of about 6500 m^2.\nThe compound was released from rubber septa (6.3 mm diameter×10.8 mm long) (100706; Aldrich, UK) that had been preextracted in hexane-dichloromethane and dried in an oven at 50° C. Septa were loaded with solutions of the test compound in hexane or with hexane alone (control). After evaporation of the solvent, the rubber septa were stored in aluminum foil bags. They were placed on traps in the field within 2 hr of preparation.\nBlue plastic rectangular takitraps (10×25 cm) (Syngenta Bioline, UK), coated on both surfaces with insect glue, were suspended vertically with the base about 10 cm above crop height, by attaching them to crop support strings with a wooden clothes peg. One rubber septum was stuck to the center of the north-facing side of each trap.\nEach experiment was laid out in a randomized complete block design with 20 blocks and one replicate per block. Traps were placed about 3.4 m apart down rows of sweet pepper plants with 16 m between each row of traps. The experiment compared two doses, 30 ng and 30 μg, of neryl (S)-2-methylbutanoate with a control.\nThrips caught on the blue sticky traps were examined under a stereoscopic microscope to identify their sex and to distinguish F. occidentalis from about 2% of the thrips that were other species (Thrips spp., aeolothripids, and phlaeothripids). The data were log10(x+1) transformed and analyzed by two-way ANOVA for females, males, and both sexes combined. Multiple comparisons with the control used Dunnett's multiple comparison test. Statistical analysis was carried out with Minitab 14 (Minitab Inc., Pennsylvania, USA)."}, "[2]": {"conditions": "0.1 ng, filter paper placed in Teflon tube instead of glass flask"}}, "note": "Structures can show the parent of a compound that is named as a salt."}
{"smiles": "CC(=O)OC/C=C(/C)CCC=C(C)C", "note": "[Neryl Acetate, reference compound]", "values": [{"measurement": "effect upon female Western Flower Thrips (in words)", "setting": "[1]", "value": "no effect"}]}
{"smiles": "CCCCC(=O)OC1CC2CCC1(C)C2(C)C", "note": "(stereo not shown) [isobornyl valerate]", "values": [{"measurement": "Preference (%)", "setting": "[1]; 0.002 ng compound in 1 μl hexane, adult females, combined runs", "value": 64.8, "unit": "%"}, {"measurement": "Preference (%)", "setting": "[1]; 0.02 ng compound in 1 μl hexane, adult females, combined runs", "value": 73.3, "unit": "%"}, {"measurement": "Preference (%)", "setting": "[1]; 0.1 ng compound in 1 μl hexane, adult females, combined runs", "value": 76.9, "unit": "%"}, {"measurement": "Preference (%)", "setting": "[1]; 0.2 ng compound in 1 μl hexane, adult females, combined runs", "value": 79.8, "unit": "%"}, {"measurement": "Preference (%)", "setting": "[1]; 2 ng compound in 1 μl hexane, adult females, combined runs", "value": 60.3, "unit": "%"}, {"measurement": "attractant effect (in words)", "setting": "[1]; 0.002-2 ng (Table 1) or 0.1 ng (Example 2)", "value": "strong attractant"}]}
{"smiles": "C=C(C)C(CC=C(C)C)COC(C)=O", "note": "(stereo not shown) [lavandulyl acetate, reference compound]", "values": [{"measurement": "attractant effect (in words)", "setting": "[1]; doses of 0.1 ng, 1 ng, 10 ng, 100 ng and 1000 ng", "value": "no attractant effect"}]}
{"smiles": "CCC(C)C(=O)OC1CC2CCC1(C)C2(C)C", "note": "(stereo not shown) [Isobornyl 2-methyl butanoate, isobornyl 2-methyl butanoate]", "values": [{"measurement": "Preference (%)", "setting": "[1]; [2]", "value": 72.9, "unit": "%"}]}
{"smiles": "CC[C@H](C)C(=O)OC/C=C(/C)CCC=C(C)C", "note": "[N(S)2MB, neryl (S)-2-methylbutanoate]", "values": [{"measurement": "Mean catch over 2 days ± SE (N = 20)", "setting": "F. occidentalis; Both sexes, high dose 30 μg on rubber septum", "value": "22.2 ± 2.0"}, {"measurement": "Mean catch over 2 days ± SE (N = 20)", "setting": "F. occidentalis; Both sexes, low dose 30 ng on rubber septum", "value": "18.7 ± 1.7", "unit": "ns"}, {"measurement": "Mean catch over 2 days ± SE (N = 20)", "setting": "F. occidentalis; Females, high dose 30 μg on rubber septum", "value": "9.1 ± 1.2"}, {"measurement": "Mean catch over 2 days ± SE (N = 20)", "setting": "F. occidentalis; Females, low dose 30 ng on rubber septum", "value": "6.8 ± 0.7", "unit": "ns"}, {"measurement": "Mean catch over 2 days ± SE (N = 20)", "setting": "F. occidentalis; Males, high dose 30 μg on rubber septum", "value": "13.2 ± 1.1"}, {"measurement": "Mean catch over 2 days ± SE (N = 20)", "setting": "F. occidentalis; Males, low dose 30 ng on rubber septum", "value": "11.9 ± 1.2", "unit": "ns"}, {"measurement": "effect on trap catches (in words)", "setting": "F. occidentalis; dose of 30 μg, both sexes attracted", "value": "increased trap catches significantly"}]}
{"smiles": "C=C(C)C(CC=C(C)C)COC(=O)CCCC", "note": "(stereo not shown) [lavandulyl valerate]", "values": [{"measurement": "Preference (%)", "setting": "[1]; [2]", "value": 79.2, "unit": "%"}]}
{"smiles": "CC(C)(C)C(=O)OC1CC2CCC1(C)C2(C)C", "note": "(stereo not shown) [isobornyl pivalate]", "values": [{"measurement": "Preference (%)", "setting": "[1]; [2]", "value": 61.3, "unit": "%"}]}
{"smiles": "CC(C)=CCC/C(C)=C\\COC=O", "note": "[Neryl Formate, reference compound]", "values": [{"measurement": "effect upon female Western Flower Thrips (in words)", "setting": "[1]", "value": "no effect"}]}
